According to PubChem BioAssay (NCI):
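All cell lines were grown in 96-well plates and treated with compound for 48 hours. TGI marks complete inhibition of growth.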

Tests used:
Experiment in all cases: inhibition of tumour cell growth, NCI panel, 48 h
COLO 205 colon = system: COLO 205 colon
NCI-H460 lung = system: NCI-H460 lung
HOP-62 NSCLC = system: HOP-62 NSCLC
MCF7 breast = system: MCF7 breast
K-562 leukemia = system: K-562 leukemia
SNB-75 CNS = system: SNB-75 CNS
NCI-H226 lung = system: NCI-H226 lung
786-0 renal = system: 786-0 renal
SF-539 CNS = system: SF-539 CNS
DU-145 prostate = system: DU-145 prostate
OVCAR-8 ovarian = system: OVCAR-8 ovarian
RPMI-8226 leukemia = system: RPMI-8226 leukemia
CCRF-CEM leukemia = system: CCRF-CEM leukemia
UO-31 renal = system: UO-31 renal
CAKI-1 renal = system: CAKI-1 renal
MDA-MB-231 breast = system: MDA-MB-231 breast
HCT-15 colon = system: HCT-15 colon
BT-549 breast = system: BT-549 breast
SF-295 CNS = system: SF-295 CNS
KM12 colon = system: KM12 colon

Compound | TGI (COLO 205 colon) [µM] | TGI (NCI-H460 lung) [µM] | TGI (HOP-62 NSCLC) [µM] | TGI (MCF7 breast) [µM] | TGI (K-562 leukemia) [µM] | TGI (SNB-75 CNS) [µM] | TGI (NCI-H226 lung) [µM] | TGI (786-0 renal) [µM] | TGI (SF-539 CNS) [µM] | TGI (DU-145 prostate) [µM] | TGI (OVCAR-8 ovarian) [µM] | TGI (RPMI-8226 leukemia) [µM] | TGI (CCRF-CEM leukemia) [µM] | TGI (UO-31 renal) [µM] | TGI (CAKI-1 renal) [µM] | TGI (MDA-MB-231 breast) [µM] | TGI (HCT-15 colon) [µM] | TGI (BT-549 breast) [µM] | TGI (SF-295 CNS) [µM] | TGI (KM12 colon) [µM]
COC(=O)/C(=C\c1cn(C(C)=O)c2ccccc12)P(=O)(OC)OC | 33.3 | 31.1 | 28.8 | 26.4 | > 100 | 26.4 | > 100 | 46.3 | 38.7 | 26.2 | 68.9 | 93.9 | > 100 | 26.1 | 27 | 24.1 | 28.1 | 29.6 | 28.5 | –
CC(C)c1nc2c(Cl)c3ncccc3cc2[nH]c1=O | > 100 | > 100 | > 100 | > 100 | > 100 | > 100 | > 100 | > 100 | > 100 | > 100 | > 100 | > 100 | > 100 | > 100 | > 100 | > 100 | > 100 | > 100 | > 100 | > 100
O=[N+]([O-])c1ccc(NC(=S)Nc2ccccn2)cc1 | > 94.5 | > 100 | 44.8 | > 100 | > 100 | 71.6 | > 64.2 | > 59 | 55.5 | 35.5 | > 100 | > 100 | > 100 | > 100 | 18.9 | > 100 | > 100 | > 100 | > 100 | > 55.6
O=Cc1ccc(-c2cccc([N+](=O)[O-])c2)s1 | > 100 | > 100 | > 100 | > 100 | > 100 | > 100 | > 100 | > 100 | > 100 | > 100 | > 100 | > 100 | > 100 | > 100 | > 100 | > 100 | > 100 | > 100 | > 100 | > 100
OC(C/C(=N\N=C(/CC(O)(C(F)(F)F)C(F)(F)F)c1ccccc1)c1ccccc1)(C(F)(F)F)C(F)(F)F | > 10 | > 10 | > 10 | > 10 | > 10 | > 10 | > 10 | > 10 | > 10 | > 10 | > 10 | > 10 | > 10 | – | > 10 | > 10 | > 10 | > 10 | > 10 | > 10
CC(=O)OC[C@@H](OC(C)=O)[C@@H](OC(C)=O)[C@H]1OC[C@@H]2C[C@H]([C@H]1OC(C)=O)N(Cc1ccccc1)O2 | > 100 | > 100 | > 100 | > 100 | > 100 | > 100 | > 100 | > 100 | > 100 | > 100 | – | > 100 | > 100 | > 100 | > 100 | > 100 | – | > 100 | > 100 | > 100
CCSC(=O)/C=C1\CN(C(=O)OC(C)(C)C)C1C(=O)OC(C)(C)C (stereo unspecified) | 5.48 | 23.2 | 28.9 | 16.8 | 4.63 | 17.4 | 27.5 | 6.23 | 7.51 | 16.3 | 7.85 | 4.77 | 3.97 | 10 | 13.3 | 12.7 | 3.93 | 22.4 | 25 | 12.3
COc1ccc([C@H](NC(=O)c2ccccc2)[C@@H](O)C(=O)O[C@H]2C[C@@]3(O)C(OC(=O)c4ccccc4)C4[C@](C)(C(=O)[C@H](OC(C)=O)C(=C2C)C3(C)C)[C@@H](O)C[C@H]2OC[C@@]42OC(C)=O)cc1 (stereo partly specified) | 0.0123 | > 10 | – | > 10 | > 10 | 0.0589 | > 10 | > 10 | 0.00758 | 0.00657 | > 10 | > 10 | > 10 | – | > 10 | > 10 | > 8.98 | > 10 | 2.92 | –
N#C/C(=C\c1ccc(Br)cc1)c1nc(-c2cc3ccccc3oc2=O)cs1 | > 50 | > 50 | 20.1 | > 50 | > 50 | 30.6 | > 50 | > 50 | 40.4 | > 50 | > 50 | > 50 | > 50 | > 50 | > 50 | 20.6 | > 50 | 14.5 | > 50 | > 50
Clc1ccc(-c2nc3ccc(C45CC6CC(CC(C6)C4)C5)cc3[nH]2)cc1 | 24.3 | > 90.5 | > 77 | > 100 | 0.0221 | > 100 | > 100 | > 100 | > 100 | > 100 | > 100 | > 100 | > 100 | > 100 | > 100 | > 100 | > 72.8 | 98.3 | > 100 | > 100
COC(=O)C1(C)CCCC2(C)C3CCC4CC3(C=C4CO)CCC12 (stereo unspecified) | > 100 | – | > 100 | 72.7 | – | > 100 | > 100 | > 100 | > 100 | > 100 | > 100 | 48.6 | > 100 | > 100 | > 100 | > 100 | 34.9 | > 100 | > 100 | –
CC(C)(C)[Si](C)(C)OCC#C[C@@]1(O)CCCCC1CC(Sc1ccccc1)Sc1ccccc1 (stereo partly specified) | 31.6 | 34.6 | 31.4 | 24.7 | > 100 | 28.7 | 34.8 | 26.4 | – | 29.8 | 35.1 | 73.3 | 39.5 | 26.9 | 23.2 | 34.7 | 34.5 | 36.3 | 28.2 | 63.8
Cc1cc(-c2nc3cc(O)ccc3s2)ccc1N | 49.8 | > 100 | > 100 | > 100 | > 100 | 95.5 | > 100 | > 100 | 49.3 | > 100 | > 100 | – | 96.8 | 78.8 | > 100 | > 100 | > 100 | > 100 | 73.4 | 66.6
Cc1ccc(S(=O)(=O)NC2=NS(=O)(=O)c3cc(C)c(Cl)cc3S2)cc1 | > 100 | > 100 | > 100 | > 100 | > 100 | > 100 | > 100 | > 100 | > 100 | > 100 | > 100 | > 100 | – | > 100 | > 100 | > 100 | > 100 | > 100 | > 100 | > 100
CC(C)c1ccc2[nH]c(O)c(C3=Nc4ccccc4C3=O)c2c1 | > 100 | > 100 | 21 | 1.3 | > 100 | 9.36 | 18.7 | 12.3 | – | 94.5 | > 100 | > 100 | > 100 | > 100 | > 100 | 48 | > 100 | 69.6 | > 100 | > 100
COC(=O)CCC(C)C1CCC2C3CCC4CC5CCC4(C)C3(O5)C(Br)C(Br)C12C (stereo unspecified) | > 100 | > 100 | > 100 | > 100 | > 100 | > 100 | > 100 | > 100 | > 100 | > 100 | > 100 | > 100 | – | > 100 | > 100 | > 100 | > 100 | > 100 | > 100 | > 100
C/C(=N\NC(=S)NNC(=S)N(C)c1ccccc1)c1ccccn1 | > 100 | 29.5 | > 100 | > 100 | > 100 | > 100 | 6.85 | > 47.2 | 11.1 | > 100 | > 100 | > 30.4 | – | 7.59 | 8.39 | > 100 | > 100 | > 100 | > 100 | > 100
COc1ccc2c(c1)CCCN1Cc3ccccc3CC21 (stereo unspecified) | > 100 | > 100 | > 100 | > 100 | > 100 | > 100 | > 100 | > 100 | > 100 | > 100 | > 100 | – | > 100 | > 100 | > 100 | > 100 | > 100 | > 100 | > 100 | > 100
CCN(CC)CCC(=O)c1ccc(Oc2ccccc2)cc1 | 32.1 | – | 77.4 | 38.5 | > 100 | 52 | > 100 | 29.3 | 34 | 71.2 | > 100 | 39.2 | 51.3 | – | 30.7 | 36.7 | 35.6 | 33.5 | > 100 | 27.4
